Test results: the supplement of paper PMC10307832

Legend:
Assay in all cases: relative viability (nuclei count vs DMSO), 5 days (fraction); higher = more cells survive
HCC-15 = system: HCC-15
Summary of the method: (§1)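 Lung cancer cell lines were pin-tool dosed in 1536-well plates on the day after seeding, with either a lone drug or a fixed anchor-drug dose plus five library-drug doses (not always all listed) in √10 steps. Nuclei were counted on 4× images after 5 days. Relative viability is the ratio of treated-well to vehicle-well nuclei counts, with each value a median of duplicate plates.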

NCI-H1703 = system: NCI-H1703
Summary of the method: as §1

Calu-6 = system: Calu-6
Summary of the method: as §1

IA-LM = system: IA-LM
Summary of the method: as §1

NCI-H1299 = system: NCI-H1299
Summary of the method: as §1

EBC-1 = system: EBC-1
Summary of the method: as §1

UMC-11 = system: UMC-11
Summary of the method: as §1

A549 = system: A549
Summary of the method: as §1

LCLC-103H = system: LCLC-103H
Summary of the method: as §1

| Structure (SMILES) | relative viability (HCC-15; first compound 0.04 µM) | relative viability (HCC-15; first compound 0.1265 µM) | relative viability (HCC-15; first compound 0.4 µM) | relative viability (HCC-15; first compound 1.265 µM) | relative viability (NCI-H1703; first compound 0.1265 µM) | relative viability (NCI-H1703; first compound 0.4 µM) | relative viability (NCI-H1703; first compound 1.265 µM) | relative viability (Calu-6; first compound 0.04 µM) | relative viability (Calu-6; first compound 0.1265 µM) | relative viability (Calu-6; first compound 0.4 µM) | relative viability (Calu-6; first compound 1.265 µM) | relative viability (IA-LM; first compound 0.04 µM) | relative viability (IA-LM; first compound 0.1265 µM) | relative viability (IA-LM; first compound 0.4 µM) | relative viability (IA-LM; first compound 1.265 µM) | relative viability (NCI-H1299; first compound 0.04 µM) | relative viability (NCI-H1299; first compound 0.1265 µM) | relative viability (NCI-H1299; first compound 0.4 µM) | relative viability (NCI-H1299; first compound 1.265 µM) | relative viability (EBC-1; first compound 0.04 µM) | relative viability (EBC-1; first compound 0.1265 µM) | relative viability (EBC-1; first compound 0.4 µM) | relative viability (EBC-1; first compound 1.265 µM) | relative viability (UMC-11; first compound 0.04 µM) | relative viability (UMC-11; first compound 0.1265 µM) | relative viability (UMC-11; first compound 0.4 µM) | relative viability (UMC-11; first compound 1.265 µM) | relative viability (A549; first compound 0.04 µM) | relative viability (A549; first compound 0.1265 µM) | relative viability (A549; first compound 0.4 µM) | relative viability (A549; first compound 1.265 µM) | relative viability (LCLC-103H; first compound 0.04 µM) | relative viability (LCLC-103H; first compound 0.1265 µM) | relative viability (LCLC-103H; first compound 0.4 µM) | relative viability (LCLC-103H; first compound 1.265 µM) | relative viability (NCI-H1703; first compound 0.04 µM) |
| --- | --- | --- | --- | --- | --- | --- | --- | --- | --- | --- | --- | --- | --- | --- | --- | --- | --- | --- | --- | --- | --- | --- | --- | --- | --- | --- | --- | --- | --- | --- | --- | --- | --- | --- | --- | --- |
| O=C(O)c1ccc(-c2c[nH]c3ncc(-c4ccccc4)cc23)cc1C1CCCC1 + CC1(C)CCC(c2ccc(Cl)cc2)=C(CN2CCN(c3ccc(C(=O)NS(=O)(=O)c4ccc(N[C@H](CCN5CCOCC5)CSc5ccccc5)c(S(=O)(=O)C(F)(F)F)c4)cc3)CC2)C1 [Navitoclax] (partner 0.5 µM) | 0.697 | 0.746 | 0.662 | 0.373 | 1.11 | 1.03 | 1.11 | 0.821 | 0.732 | 0.719 | 0.55 | 0.925 | 0.829 | 0.89 | 0.576 | 1.07 | 1.08 | 1.02 | 0.942 | 0.475 | 0.404 | 0.352 | 0.279 | 0.318 | 0.299 | 0.328 | 0.222 | 1.09 | 1.24 | 1.17 | 0.939 | – | – | – | – | – |
| O=C(O)c1ccc(-c2c[nH]c3ncc(-c4ccccc4)cc23)cc1C1CCCC1 + CC(C)C[C@H](NC(=O)[C@H](Cc1ccccc1)NC(=O)c1cnccn1)B(O)O [Bortezomib] (partner 0.002 µM) | 0.985 | 1.05 | 1.08 | 0.731 | 0.235 | 0.3 | 0.433 | 0.912 | 1 | 0.907 | 0.661 | 0.915 | 0.868 | 0.761 | 0.658 | 1.05 | 1.03 | 0.986 | 0.893 | 0.567 | 0.583 | 0.452 | 0.308 | 0.747 | 0.764 | 0.666 | 0.519 | – | – | – | – | 1.11 | 1.15 | 1 | 1.05 | – |
| O=C(O)c1ccc(-c2c[nH]c3ncc(-c4ccccc4)cc23)cc1C1CCCC1 + CS(=O)(=O)CCNCc1ccc(-c2ccc3ncnc(Nc4ccc(OCc5cccc(F)c5)c(Cl)c4)c3c2)o1 [Lapatinib] (partner 2 µM) | 0.882 | 0.987 | 0.838 | 0.551 | 1.44 | 1.06 | 0.929 | 1.02 | 1.09 | 0.984 | 0.78 | 0.913 | 1.03 | 0.974 | 0.782 | 0.945 | 1 | 0.938 | 0.829 | 0.224 | 0.215 | 0.227 | 0.242 | 0.994 | 1.09 | 1.06 | 1.01 | 1.01 | 0.985 | 0.899 | 0.837 | – | – | – | – | 1.11 |
